Reference: article PMC5573760 (Cancer Chemotherapy and Pharmacology, 2017)

Key:
clinical target (PI3K) = system: clinical target (PI3K); set-up: method as in Bayer AG, data on file; conditions: ref Bayer AG, data on file; cited from earlier work
[1] = Mass balance: excretion of radioactivity, copanlisib and metabolites in urine and feces; format: in vivo, human; conditions: 6 subjects; for Amount excreted in feces as this component, arithmetic mean (range) / Amount excreted in urine as this component, arithmetic mean (range): HPLC with off-line radioactivity detection; for Amount of dose recovered as this component in urine and feces combined: urine plus feces
Protocol: After pooling and homogenization of urine and feces samples per time interval, aliquots were stored at −20 °C for total radioactivity determination and at −70°C for metabolic profiling (including blood/plasma samples). For determination of total radioactivity, samples were analyzed with a Perkin Elmer Tri-Carb™ 3100 TR liquid scintillation analyzer (Perkin Elmer, Waltham, MA, USA) with quenching correction. For metabolite profiling, plasma samples were treated with a mixture of acetonitrile (ACN) +0.2% acetic acid, after shaking and centrifugation, the supernatant was concentrated. Urine and feces samples were treated with solid-phase extraction (Waters HLB 30 mg, 1 mL, Waters, Milford, MA, USA) and liquid–liquid extraction (ACN + 0.2% trifluoroacetic acid/water, 80:20 volume/volume), respectively. Subsequently samples from plasma, urine and feces were analyzed by HPLC-LSC on Synergi Polar 4 µm 150 × 2 mm (Phenomenex, Aschaffenburg, Germany) with off-line radioactivity detection by Microbeta^2™ Plus liquid scintillation counter with Ultima Flo™ AP scintillation fluid (Packard Instrument BV, Groningen, The Netherlands).
Metabolite patterns in plasma, urine and feces were studied by the HPLC method with off-line radioactivity detection described above.
A similar approach has been described earlier.

clinical = conditions: for Tmax: male, human, in vivo, iv, t max
Protocol: All subjects gave written informed consent; the study was conducted at PRA Health Sciences (Zuidlaren, The Netherlands) in accordance with the Declaration of Helsinki and was approved by an accredited institutional ethics committee (Medisch Ethische Toetsings Commissie, Assen, The Netherlands).
Subjects remained fasting until 2-h after the end of the infusion. Volunteers stayed in-house until 14 days after the application and subsequently urine and feces were collected for 24-h on Day 16, 20, 27 and 34 if necessary, cf. below.
Urine was collected pre-dose, at 0–12-h and 12–24 h after the start of the infusion and thereafter over 24-h intervals on Day 2 to Day 14 as well as on Day 16, 20, 27 and 34 (±1 day). Cumulative 24-h fecal samples were collected from Day 1 (day of infusion) to Day 14 and as well as on Day 16, 20, 27 and 34 (±1 day). […] The excreted radioactivity between ambulant visits during the prolongation phase of the clinical study was calculated using interpolation to get a more realistic total excretion value of all subjects (see "Pharmacokinetic analysis").
All samples were frozen at −70 °C and analyzed within 60 days of sample collection.
For blood/plasma ratio determination, total radioactivity in urine and feces well as data from HPLC analysis data from radioactivity measurement by liquid scintillation counting (LSC) were considered. The amount of radioactivity recovered in the excreta (A E) was related to the administered radioactive dose to establish the radioactive balance. Arithmetic means and coefficients of variation (CV) were calculated for these percentages. […] Cumulative excretion was calculated as sum of the collection intervals. The elimination of the total radioactivity in urine and feces for time-points beyond day 14 was performed by log-linear extrapolation between analyzed time-points. Amounts of radioactivity excreted in urine and feces between two ambulant visits were calculated per interpolated day by linear interpolation of log-transformed excretion data separately per matrix (lnA E(interpolated day) = Δdays × [lnA E(Visit i + 1) − lnA E(Visit i)]/[day (Visit i + 1) − day (Visit i)] + lnA E(Visit i), with A E given as amount of radioactivity excreted in matrix per day and Δdays being the difference between the calculated day and the last available visit with A E > 0). In case no feces sample was provided on an ambulant visit, this visit was neglected for interpolation. A similar approach has been described earlier. The concentration/amount for each component of each sample/time-point was calculated by multiplying the total radioactivity concentration/amount of each sample with %-area of each component obtained after off-line HPLC separation. The amount of radioactivity in urine and feces at late time-points where no component was detected was distributed in the same percentage to the component (s) present at the time-point before.
Compartment-free analysis was performed employing WinNonlin software (version 5.3, Pharsight Certara, Princton, NJ, USA).
Pharmacokinetic parameters were evaluated by descriptive data analysis without formal hypothesis testing by calculating either medians (t max, t last) or geometric means and %CV (remaining parameters). Excretion data (urine, feces, total) were evaluated by arithmetic means.

Row | SMILES | Affinity to the clinical target relative to parent compound (clinical target (PI3K)) | Amount excreted in feces as this component, arithmetic mean (range) [1] | Amount of dose recovered as this component in urine and feces combined [1] | Amount excreted in urine as this component, arithmetic mean (range) [1] | Tmax (clinical; median) [h] | Tmax (clinical; range) [h] | Range of AUC (0–t last) (LC–MS) (clinical; plasma, t last defined by the time-point with detectable radioactivity, range of 6 subjects)
1 | COc1c(OCCCN2CCOCC2=O)ccc2c1N=C(NC(=O)c1cnc(N)nc1)N1CCN=C21 [M1] | same order of magnitude as found for the parent compound | 6.39 (4.34–8.66) % of dose | 11.1 % of dose | 4.47 (2.53–6.79) % of dose | 6 | 3 to 10 | 4.36–37.8 ng-Eq·h/mL
2 | COc1c(OCCC(=O)O)ccc2c1N=C(NC(=O)c1cnc(N)nc1)N1CCN=C21 [M2] | – | 11.8 (9.91–13.0) % of dose | – | 0.34 (0.10–0.52) % of dose | – | – | –
3 | COc1c(OCCCNCCO)ccc2c1N=C(NC(=O)c1cnc(N)nc1)N1CCN=C21 [M3] | – | 7.32 (5.61–11.6) % of dose | – | 0.32 (0–0.62) % of dose | – | – | –
4 | COc1c(O)ccc2c1N=C(NC(=O)c1cnc(N)nc1)N1CCN=C21 [M4] | – | 5.61 (1.74–9.53) % of dose | – | 0.15 (0.04–0.32) % of dose | – | – | –
5 | COc1c(OCCCO)ccc2c1N=C(NC(=O)c1cnc(N)nc1)N1CCN=C21 [M15] | – | – | < 2 % of dose | – | – | – | –
6 | COc1c(OCCCN(C=O)CCO)ccc2c1N=C(NC(=O)c1cnc(N)nc1)N1CCN=C21 [M21] | – | – | < 2 % of dose | – | – | – | –
